Legend:
Influenza A virus [1] = experiment: microbe, parasite or virus in culture; details: H5N1, MDCK, 48 h
Influenza A virus [2] = type: functional, organism-based; details: A/Puerto Rico/8/34 (H1N1), MDCK, 48 h
Influenza A virus [3] = type: functional, organism-based; details: A/Aichi/2/68 (H3N2), MDCK, 48 h
Influenza A virus [4] = type: functional, organism-based; details: A/Vietnam/1194/2004 (H5N1), MDCK, 48 h
Influenza A virus [5] = type: functional, organism-based; details: A/Anhui/1/2013 (H7N9), MDCK, 48 h
Influenza A virus [6] = experiment: Antiviral activity against influenza A virus (A/Puerto Rico/8/34) H1N1; type: functional, organism-based; details: (A/Puerto Rico/8/34) H1N1, MDCK
Influenza A virus [7] = experiment: Antiviral activity against influenza A virus (A/Vietnam/1203/2004) H5N1; type: functional, organism-based; details: (A/Vietnam/1203/2004) H5N1, MDCK

SMILES | EC50 (Influenza A virus [1]) [nM] | further results
O=C(NNc1c(Br)cccc1Br)c1ccc(O)cc1 | > 100000 | 
O=C(NNc1c(Br)cccc1Br)c1ccc(F)cc1 | 88000 | 
CN(C)c1ccc(C(=O)NNc2c(F)cccc2F)cc1 | > 100000 | 
COc1cccc(C(=O)NNc2c(Br)cccc2Br)c1 | > 100000 | 
Cc1ccc(C(=O)NNc2c(Cl)cccc2Cl)cc1 | 4100 | 
O=C(NNc1c(Br)cccc1Br)c1ccc(Br)cc1 | 22000 | 
CCCc1ccc(C(=O)NNc2c(Cl)cccc2Cl)cc1 | 190 | 
O=C(NNc1c(Br)cccc1Br)c1ccc2ccccc2c1 | 1200 | 
CCOc1ccc(C(=O)NNc2cccc(Br)c2)cc1 | > 100000 | 
O=C(NNc1c(Br)cccc1Br)c1ccccc1 | 81000 | 
O=C(NNc1c(Br)cccc1Br)c1ccc2c(c1)OCO2 | 13000 | 
O=c1oc2cc(O)cc(O)c2c2ccccc12 |  | EC50 (Influenza A virus [2]): 1700 nM; EC50 (Influenza A virus [3]): 1700 nM; EC50 (Influenza A virus [4]): 1700 nM; EC50 (Influenza A virus [5]): 1700 nM
COC(=O)c1ccc(C(=O)NNc2c(Br)cccc2Br)cc1 | 330 | 
O=C(NNc1c(Cl)cccc1Cl)c1ccccc1 | > 100000 | 
O=C(NNc1c(Br)cccc1Br)c1ccc(OCC(F)(F)F)cc1 | 34 | 
CCOc1ccc(C(=O)NNc2ccccc2Br)cc1 | > 100000 | 
CCc1ccc(C(=O)NNc2c(Br)cccc2Br)cc1 | 78 | 
CCOc1ccc(C(=O)NNc2c(F)cccc2F)cc1 | 31000 | 
CCCCOc1ccc(C(=O)NNc2c(Br)cccc2Br)cc1 | 230 | 
COc1ccc(C(=O)NNc2c(Br)cccc2Br)cc1 | 2300 | 
O=C(O)[C@H]1C2CCC(CC2)[C@@H]1Nc1nc(-c2c[nH]c3ncc(F)cc23)ncc1F [PIMODIVIR] |  | EC50 (Influenza A virus [6]): 0.3 nM; EC50 (Influenza A virus [7]): 0.1 nM
O=C(NNc1c(Br)cccc1Br)c1cccnc1 | > 100000 | 
CN(C)c1ccc(C(=O)NNc2c(Br)cccc2Br)cc1 | 31 | 
Nc1ccc(C(=O)NNc2c(Br)cccc2Br)cc1 | 7800 | 
CCc1ccc(C(=O)NNc2c(Br)cc(Br)cc2Br)cc1 | 4400 | 
O=C(NNc1c(Br)cccc1Br)c1ccc(B(O)O)cc1 | > 100000 | 

From ChEMBL document CHEMBL5154759, “Discovery of Aryl Benzoyl Hydrazide Derivatives as Novel Potent Broad-Spectrum Inhibitors of Influenza A Virus RNA-Dependent RNA Polymerase (RdRp)” (J Med Chem, 2022)
